ChEMBL document CHEMBL1201862, “PubChem BioAssay data set” (2004)
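Cultured in 96-well plates, cells were exposed to test compound for 48 hours across five concentrations. Here, GI50 denotes the concentration required for 50% inhibition of growth.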 Activity calls are given as the source filed them. Rule as the data show it: active = GI50 up to about 1.1 µM and inactive = higher.

Tests used:
Assay in all cases: NCI-60 cell line screen, 48 h
786-0 = tested on: 786-0
A498 = tested on: A498
A549 = tested on: A549
ACHN = tested on: ACHN
CAKI-1 = tested on: CAKI-1
CCRF-CEM = tested on: CCRF-CEM
COLO 205 = tested on: COLO 205
DLD-1 = tested on: DLD-1
DMS-114 = tested on: DMS-114
DMS-273 = tested on: DMS-273
EKVX = tested on: EKVX
HCC 2998 = tested on: HCC 2998
HCT-116 = tested on: HCT-116
HCT-15 = tested on: HCT-15
HL-60 = tested on: HL-60
HOP-18 = tested on: HOP-18
HOP-62 = tested on: HOP-62
HOP-92 = tested on: HOP-92
HT-29 = tested on: HT-29
IGROV-1 = tested on: IGROV-1
K562 = tested on: K562
KM-20L2 = tested on: KM-20L2
KM12 = tested on: KM12
LOX IMVI = tested on: LOX IMVI
LXFL 529 = tested on: LXFL 529
M14 = tested on: M14
MOLT-4 = tested on: MOLT-4
Malme-3M = tested on: Malme-3M
NCI-H226 = tested on: NCI-H226
NCI-H23 = tested on: NCI-H23
NCI-H460 = tested on: NCI-H460
NCI-H522 = tested on: NCI-H522
OVCAR-3 = tested on: OVCAR-3
OVCAR-4 = tested on: OVCAR-4
OVCAR-5 = tested on: OVCAR-5
OVCAR-8 = tested on: OVCAR-8
RPMI-8226 = tested on: RPMI-8226
RXF 393 = tested on: RXF 393
RXF 631 = tested on: RXF 631
SF-268 = tested on: SF-268
SF-295 = tested on: SF-295
SF-539 = tested on: SF-539
SK-MEL-28 = tested on: SK-MEL-28
SK-MEL-2 = tested on: SK-MEL-2
SK-MEL-5 = tested on: SK-MEL-5
SK-OV-3 = tested on: SK-OV-3
SN12C = tested on: SN12C
SNB-19 = tested on: SNB-19
SNB-75 = tested on: SNB-75
SNB-78 = tested on: SNB-78
SR = tested on: SR
SW-620 = tested on: SW-620
TK-10 = tested on: TK-10
U-251 = tested on: U-251
UACC-257 = tested on: UACC-257
UACC-62 = tested on: UACC-62
UO-31 = tested on: UO-31
XF498 = tested on: XF498
M19-MEL = tested on: M19-MEL

In the case of CC(SC1=CC(=O)c2c(O)ccc(O)c2C1=O)C(=O)O (configuration not stated), the GI50 (786-0) is reported as 23.9 µM (inactive), the GI50 (A498) is reported as > 62.7 µM (inactive) and the GI50 (A549) is reported as 97.3 µM (inactive). For the same compound, the GI50 (ACHN) was 26.7 µM (inactive), the GI50 (CAKI-1) was 27.4 µM (inactive) and the GI50 (CCRF-CEM) was 3.08 µM (inactive). The GI50 (COLO 205) was 22.5 µM (inactive), the GI50 (DLD-1) was > 39.8 µM (inactive) and the GI50 (DMS-114) was 19.5 µM (inactive). For the same compound, the GI50 (DMS-273) was > 60.4 µM (inactive), the GI50 (EKVX) was > 100 µM (inactive) and the GI50 (HCC 2998) was > 73.8 µM (inactive). For the same compound, the GI50 (HCT-116) was 31.2 µM (inactive), the GI50 (HCT-15) was over 37 µM and the GI50 (HL-60) was 13.6 µM (inactive). For the same compound, the GI50 (HOP-18) was > 55.3 µM (inactive), the GI50 (HOP-62) was > 100 µM (inactive) and the GI50 (HOP-92) was > 58.5 µM (inactive). For the same compound, the GI50 (HT-29) was 41.7 µM (inactive), the GI50 (IGROV-1) was > 44.9 µM (inactive) and the GI50 (K562) was 13.8 µM (inactive). For the same compound, the GI50 (KM-20L2) was > 51.8 µM (inactive), the GI50 (KM12) was > 100 µM (inactive) and the GI50 (LOX IMVI) was > 41.2 µM (inactive). The GI50 (LXFL 529) was > 35.5 µM (inactive), the GI50 (M14) was 32.1 µM (inactive) and the GI50 (MOLT-4) was 7.48 µM (inactive). The GI50 (Malme-3M) was > 44.5 µM (inactive), the GI50 (NCI-H226) was > 58.5 µM (inactive) and the GI50 (NCI-H23) was > 56.4 µM (inactive). For the same compound, the GI50 (NCI-H460) was > 100 µM (inactive), the GI50 (NCI-H522) was 1.51 µM (inactive) and the GI50 (OVCAR-3) was 21.4 µM (inactive). The GI50 (OVCAR-4) was 17 µM (inactive), the GI50 (OVCAR-5) was > 100 µM (inactive) and the GI50 (OVCAR-8) was 23.5 µM (inactive). For the same compound, the GI50 (RPMI-8226) was > 52.8 µM (inactive), the GI50 (RXF 393) was > 48.4 µM (inactive) and the GI50 (RXF 631) was 56.4 µM (inactive). For the same compound, the GI50 (SF-268) was 48 µM (inactive), the GI50 (SF-295) was > 100 µM (inactive) and the GI50 (SF-539) was > 68.5 µM (inactive). The GI50 (SK-MEL-28) was > 55.1 µM (inactive), the GI50 (SK-MEL-2) was > 100 µM (inactive) and the GI50 (SK-MEL-5) was > 61.5 µM (inactive). The GI50 (SK-OV-3) was > 100 µM (inactive), the GI50 (SN12C) was > 48.2 µM (inactive) and the GI50 (SNB-19) was > 100 µM (inactive). For the same compound, the GI50 (SNB-75) was > 50.5 µM (inactive), the GI50 (SNB-78) was > 47.4 µM (inactive) and the GI50 (SR) was > 52.8 µM (inactive). The GI50 (SW-620) was > 40.8 µM (inactive), the GI50 (TK-10) was > 51.5 µM (inactive) and the GI50 (U-251) was > 42.1 µM (inactive). The GI50 (UACC-257) was 35.5 µM (inactive), the GI50 (UACC-62) was 17.5 µM (inactive) and the GI50 (UO-31) was > 47.3 µM (inactive). The GI50 (XF498) was > 49.9 µM (inactive).
In the case of COc1ccc(C(c2ccc(C(C)C)cc(=O)c2O)c2c(O)cc3oc(-c4ccccc4)cc(=O)c3c2O)cc1 (configuration not stated), the GI50 (786-0) is reported as 3.57 µM (inactive), the GI50 (A498) is reported as 18.6 µM (inactive) and the GI50 (A549) is reported as 3.35 µM (inactive). For the same compound, the GI50 (ACHN) was 4.21 µM (inactive), the GI50 (CAKI-1) was 9.04 µM (inactive) and the GI50 (CCRF-CEM) was 4.04 µM (inactive). For the same compound, the GI50 (COLO 205) was 9.79 µM (inactive), the GI50 (DLD-1) was 4.11 µM (inactive) and the GI50 (DMS-273) was 5.08 µM (inactive). For the same compound, the GI50 (EKVX) was 12.6 µM (inactive), the GI50 (HCC 2998) was 3.58 µM (inactive) and the GI50 (HCT-116) was 2.81 µM (inactive). For the same compound, the GI50 (HCT-15) was 6.9 µM, the GI50 (HL-60) was 4.4 µM (inactive) and the GI50 (HOP-18) was 17.3 µM (inactive). For the same compound, the GI50 (HOP-62) was 2.07 µM (inactive), the GI50 (HOP-92) was < 0.01 µM (active) and the GI50 (HT-29) was 17.7 µM (inactive). The GI50 (IGROV-1) was 3.91 µM (inactive), the GI50 (K562) was 3.03 µM (inactive) and the GI50 (KM-20L2) was 9.82 µM (inactive). The GI50 (LOX IMVI) was 14.6 µM (inactive), the GI50 (LXFL 529) was 14 µM (inactive) and the GI50 (M14) was 7.26 µM (inactive). The GI50 (M19-MEL) was 7.33 µM (inactive), the GI50 (MOLT-4) was 5.73 µM (inactive) and the GI50 (NCI-H23) was 4.79 µM (inactive). For the same compound, the GI50 (NCI-H460) was 3.37 µM (inactive), the GI50 (OVCAR-3) was 5.86 µM (inactive) and the GI50 (OVCAR-4) was 7.53 µM (inactive). For the same compound, the GI50 (OVCAR-8) was 6.9 µM (inactive), the GI50 (RPMI-8226) was 6.21 µM (inactive) and the GI50 (RXF 393) was 3.71 µM (inactive). For the same compound, the GI50 (RXF 631) was 11.3 µM (inactive), the GI50 (SF-295) was 4.93 µM (inactive) and the GI50 (SF-539) was 3.05 µM (inactive). For the same compound, the GI50 (SK-MEL-28) was 17.1 µM (inactive), the GI50 (SK-MEL-5) was 11.5 µM (inactive) and the GI50 (SK-OV-3) was 12.5 µM (inactive). The GI50 (SN12C) was 16.5 µM (inactive), the GI50 (SNB-19) was 4.14 µM (inactive) and the GI50 (SNB-75) was 4.51 µM (inactive). For the same compound, the GI50 (SNB-78) was 20.8 µM (inactive), the GI50 (SW-620) was 14.5 µM (inactive) and the GI50 (TK-10) was 9.42 µM (inactive). For the same compound, the GI50 (U-251) was 6.43 µM (inactive), the GI50 (UACC-257) was 27.4 µM (inactive) and the GI50 (UACC-62) was 6.65 µM (inactive). The GI50 (XF498) was 9.4 µM (inactive).
